# Assay results from patent US10407422B2, “Triazolopyridine inhibitors of myeloperoxidase” (priority 2015, dated 2019).
# Columns and labels:
# myeloperoxidase (MPO) [1] = molecular target: T1, myeloperoxidase (MPO) (Homo sapiens (Human), UniProt P05164); assay: MPO peroxidation assay (Amplex Red assay); assay type: biochemical; conditions: potency range class
# Summary of the method: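 IC50 values come from a four-parameter fit of rates taken from the linear 180-540 s portion of a 15 min kinetic read of resorufin (Ex 535/Em 590 nm). Amplex Red (200 μM) plus 10 mM H2O2 was added after a 10 min room-temperature preincubation of inhibitor with 200 pM MPO and 40 nM H2O2 in 100 mM KPi, pH 7.4.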
# myeloperoxidase (MPO) [2] = molecular target: T1, myeloperoxidase (MPO); assay: MPO chlorination assay (APF assay); assay type: biochemical; conditions: potency range class
# Summary of the method: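 Chlorinating activity followed by APF cleavage to fluorescein (485/535 nm, 3 min kinetic read) after adding APF and 10 μM H2O2. Beforehand, 200 pM enzyme, compound and 120 mM NaCl sat 10 min at room temperature in 100 mM KPi, pH 7.4. Initial-rate slopes gave % inhibition; IC50 by Hill-slope fit.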
# T1 sequence (P05164 49-745): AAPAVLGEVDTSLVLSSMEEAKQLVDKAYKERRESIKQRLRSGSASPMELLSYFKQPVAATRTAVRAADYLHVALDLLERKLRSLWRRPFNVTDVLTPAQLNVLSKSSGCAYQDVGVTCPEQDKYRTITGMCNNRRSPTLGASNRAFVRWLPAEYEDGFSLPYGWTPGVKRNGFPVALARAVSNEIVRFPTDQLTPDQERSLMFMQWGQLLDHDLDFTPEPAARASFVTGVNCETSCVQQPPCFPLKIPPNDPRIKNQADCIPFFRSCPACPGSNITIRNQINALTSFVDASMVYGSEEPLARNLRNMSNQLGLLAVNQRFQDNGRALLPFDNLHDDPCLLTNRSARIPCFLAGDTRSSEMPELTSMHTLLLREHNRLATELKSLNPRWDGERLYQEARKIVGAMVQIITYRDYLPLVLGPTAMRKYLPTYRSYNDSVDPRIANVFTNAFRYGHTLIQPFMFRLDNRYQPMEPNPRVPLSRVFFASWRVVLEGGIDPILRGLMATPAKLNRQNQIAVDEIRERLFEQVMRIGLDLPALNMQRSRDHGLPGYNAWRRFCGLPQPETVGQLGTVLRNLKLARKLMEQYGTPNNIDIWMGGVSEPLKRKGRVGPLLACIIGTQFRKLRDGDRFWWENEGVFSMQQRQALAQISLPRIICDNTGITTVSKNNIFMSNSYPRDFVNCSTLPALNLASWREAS
Compound,IC50 (myeloperoxidase (MPO) [1]) [nM],IC50 (myeloperoxidase (MPO) [2]) [nM]
"Nc1cc(Cc2cnn(Cc3cccc(OC[C@@H]4CCCN4)c3)c2)c2nn[nH]c2n1 [Example 242, 7-{[1-({3-[(2S)-Pyrrolidin-2-ylmethoxy]phenyl}methyl)-1H-pyrazol-4-yl]methyl}-3H-[1,2,3]triazolo[4,5-b]pyridin-5-amine]",1 to 100,1 to 100
"Nc1cc(Cc2cnn(Cc3cccc(OC[C@H]4CCCN4)c3)c2)c2nn[nH]c2n1 [Example 243, 7-{[1-({3-[(2R)-Pyrrolidin-2-ylmethoxy]phenyl}methyl)-1H-pyrazol-4-yl]methyl}-3H-[1,2,3]triazolo[4,5-b]pyridin-5-amine]",1 to 100,1 to 100
Nc1cc(Cc2cnn(Cc3cccc(OC[C@@H]4CCNC4)c3)c2)c2nn[nH]c2n1 [Example 244],1 to 100,1 to 100
"COC(=O)[C@@H]1C[C@@H](Oc2cccc(Cn3cc(Cc4cc(N)nc5[nH]nnc45)cn3)c2)CN1 [Example 245, Methyl (2S,4R)-4-(3-{[4-({5-amino-3H-[1,2,3]triazolo[4,5-b]pyridin-7-yl}methyl)-1H-pyrazol-1-yl]methyl}phenoxy)pyrrolidine-2-carboxylate]",101 to 999,101 to 999
"Cc1nnc([C@@H]2C[C@@H](Oc3cccc(Cn4cc(Cc5cc(N)nc6[nH]nnc56)cn4)c3)CN2)o1 [Example 246, 7-({1-[(3-{[(3R,5S)-5-(5-Methyl-1,3,4-oxadiazol-2-yl)pyrrolidin-3-yl]oxy}phenyl)methyl]-1H-pyrazol-4-yl}methyl)-3H-[1,2,3]triazolo[4,5-b]pyridin-5-amine]",1000 to 10000,1000 to 10000
"CN(C)C(=O)[C@@H]1C[C@@H](Oc2cccc(Cn3cc(Cc4cc(N)nc5[nH]nnc45)cn3)c2)CN1 [Example 247, (2S,4R)-4-(3-{[4-({5-Amino-3H-[1,2,3]triazolo[4,5-b]pyridin-7-yl}methyl)-1H-pyrazol-1-yl]methyl}phenoxy)-N,N-dimethylpyrrolidine-2-carboxamide]",101 to 999,101 to 999
"Nc1cc(Cc2cnn(Cc3cccc(O[C@H]4CN[C@H](CO)C4)c3)c2)c2nn[nH]c2n1 [Example 248, [(2S,4R)-4-(3-{[4-({5-Amino-3H-[1,2,3]triazolo[4,5-b]pyridin-7-yl}methyl)-1H-pyrazol-1-yl]methyl}phenoxy)pyrrolidin-2-yl]methanol]",1 to 100,101 to 999
"NCc1cccc(Cn2cc(Cc3cc(N)nc4[nH]nnc34)cn2)c1 [Example 249, 7-[(1-{[3-(Aminomethyl)phenyl]methyl}-1H-pyrazol-4-yl)methyl]-3H-[1,2,3]triazolo[4,5-b]pyridin-5-amine]",1 to 100,101 to 999
"NCc1ccc(Cn2cc(Cc3cc(N)nc4[nH]nnc34)cn2)cc1 [Example 250, 7-[(1-{[4-(Aminomethyl)phenyl]methyl}-1H-pyrazol-4-yl)methyl]-3H-[1,2,3]triazolo[4,5-b]pyridin-5-amine]",1 to 100,1 to 100
"CN(C)CC(=O)NCc1ccc(Cn2cc(Cc3cc(N)nc4[nH]nnc34)cn2)cc1 [Example 251, N-[(4-{[4-({5-Amino-3H-[1,2,3]triazolo[4,5-b]pyridin-7-yl}methyl)-1H-pyrazol-1-yl]methyl}phenyl)methyl]-2-(dimethylamino)acetamide]",1 to 100,101 to 999
"CN1CCN(CC(=O)NCc2ccc(Cn3cc(Cc4cc(N)nc5[nH]nnc45)cn3)cc2)CC1 [Example 252, N-[(4-{[4-({5-Amino-3H-[1,2,3]triazolo[4,5-b]pyridin-7-yl}methyl)-1H-pyrazol-1-yl]methyl}phenyl)methyl]-2-(4-methylpiperazin-1-yl)acetamide]",101 to 999,101 to 999
"Nc1cc(Cc2cnn(Cc3ccc(CNC(=O)CN4CCCC4)cc3)c2)c2nn[nH]c2n1 [Example 253, N-[(4-{[4-({5-Amino-3H-[1,2,3]triazolo[4,5-b]pyridin-7-yl}methyl)-1H-pyrazol-1-yl]methyl}phenyl)methyl]-2-(pyrrolidin-1-yl)acetamide]",101 to 999,101 to 999
"Nc1cc(Cc2cnn(Cc3cccc(CN4CCCC4)c3)c2)c2nn[nH]c2n1 [Example 254, 7-[(1-{[3-(Pyrrolidin-1-ylmethyl)phenyl]methyl}-1H-pyrazol-4-yl)methyl]-3H-[1,2,3]triazolo[4,5-b]pyridin-5-amine]",1 to 100,101 to 999
"CN(C)Cc1cccc(Cn2cc(Cc3cc(N)nc4[nH]nnc34)cn2)c1 [Example 255, 7-{[1-({3-[(Dimethylamino)methyl]phenyl}methyl)-1H-pyrazol-4-yl]methyl}-3H-[1,2,3]triazolo[4,5-b]pyridin-5-amine]",1 to 100,1 to 100
"Nc1cc(Cc2cnn(Cc3cccc(CN4CCOCC4)c3)c2)c2nn[nH]c2n1 [Example 256, 7-[(1-{[3-(Morpholin-4-ylmethyl)phenyl]methyl}-1H-pyrazol-4-yl)methyl]-3H-[1,2,3]triazolo[4,5-b]pyridin-5-amine]",101 to 999,101 to 999
"Nc1cc(Cc2cnn(Cc3cccc([C@@H]4CNCCO4)c3)c2)c2nn[nH]c2n1 [Example 257, 7-{[1-({3-[(2R)-Morpholin-2-yl]phenyl}methyl)-1H-pyrazol-4-yl]methyl}-3H-[1,2,3]triazolo[4,5-b]pyridin-5-amine]",1 to 100,1 to 100
"NCCN1Cc2ccc(Cn3cc(Cc4cc(N)nc5[nH]nnc45)cn3)cc2C1=O [Example 258, 6-{[4-({5-Amino-3H-[1,2,3]triazolo[4,5-b]pyridin-7-yl}methyl)-1H-pyrazol-1-yl]methyl}-2-(2-aminoethyl)-2,3-dihydro-1H-isoindol-1-one]",101 to 999,101 to 999
"Nc1cc(Cc2cnn(Cc3ccc4c(c3)C(=O)NCC4)c2)c2nn[nH]c2n1 [Example 259, 7-{[4-({5-Amino-3H-[1,2,3]triazolo[4,5-b]pyridin-7-yl}methyl)-1H-pyrazol-1-yl]methyl}-1,2,3,4-tetrahydroisoquinolin-1-one]",1 to 100,101 to 999
"Nc1cc(Cc2cnn(Cc3ccc4c(c3)C(c3ccccc3)CNC4)c2)c2nn[nH]c2n1 (stereo not shown) [Example 261, 7-({1-[(4-Phenyl-1,2,3,4-tetrahydroisoquinolin-6-yl)methyl]-1H-pyrazol-4-yl}methyl)-3H-[1,2,3]triazolo[4,5-b]pyridin-5-amine]",1 to 100,1 to 100
"Nc1cc(Cc2cnn(Cc3ccc4c(c3)C(C(F)(F)F)NCC4)c2)c2nn[nH]c2n1 (stereo not shown) [Example 262, 7-[(1-{[1-(Trifluoromethyl)-1,2,3,4-tetrahydroisoquinolin-7-yl]methyl}-1H-pyrazol-4-yl)methyl]-3H-[1,2,3]triazolo[4,5-b]pyridin-5-amine]",101 to 999,101 to 999
"Nc1cc(Cc2cnn(Cc3ccccc3OCc3ccccc3)c2)c2nn[nH]c2n1 [Example 263, 7-[(1-{[2-(Benzyloxy)phenyl]methyl}-1H-pyrazol-4-yl)methyl]-3H-[1,2,3]triazolo[4,5-b]pyridin-5-amine]",1 to 100,101 to 999
"Nc1cc(Cc2cnn(Cc3ccccc3Oc3ccccc3)c2)c2nn[nH]c2n1 [Example 264, 7-({1-[(2-Phenoxyphenyl)methyl]-1H-pyrazol-4-yl}methyl)-3H-[1,2,3]triazolo[4,5-b]pyridin-5-amine]",1 to 100,101 to 999
"Nc1cc(Cc2cnn(Cc3ccccc3Cc3ccccc3)c2)c2nn[nH]c2n1 [Example 265, 7-({1-[(2-Benzylphenyl)methyl]-1H-pyrazol-4-yl}methyl)-3H-[1,2,3]triazolo[4,5-b]pyridin-5-amine]",1 to 100,1 to 100
"Nc1cc(Cc2cnn(Cc3cccc4c3Cc3ccccc3-4)c2)c2nn[nH]c2n1 [Example 266, 7-{[1-(9H-Fluoren-1-ylmethyl)-1H-pyrazol-4-yl]methyl}-3H-[1,2,3]triazolo[4,5-b]pyridin-5-amine]",1 to 100,101 to 999
"Nc1cc(Cc2cnn(Cc3ccc4c(c3)CCC[C@@H]4N)c2)c2nn[nH]c2n1 [Example 267, 7-[(1-{[(5S)-5-Amino-5,6,7,8-tetrahydronaphthalen-2-yl]methyl}-1H-pyrazol-4-yl)methyl]-3H-[1,2,3]triazolo[4,5-b]pyridin-5-amine]",1 to 100,1 to 100
"Nc1cc(Cc2cnn(Cc3ccc4c(c3)CC[C@H]4N)c2)c2nn[nH]c2n1 [Example 268, 7-[(1-{[(1R)-1-Amino-2,3-dihydro-1H-inden-5-yl]methyl}-1H-pyrazol-4-yl)methyl]-3H-[1,2,3]triazolo[4,5-b]pyridin-5-amine]",1 to 100,1 to 100
"Nc1cc(Cc2cnn(Cc3ccc4c(c3)CCC[C@H]4N)c2)c2nn[nH]c2n1 [Example 269, 7-[(1-{[(5R)-5-Amino-5,6,7,8-tetrahydronaphthalen-2-yl]methyl}-1H-pyrazol-4-yl)methyl]-3H-[1,2,3]triazolo[4,5-b]pyridin-5-amine]",1 to 100,1 to 100
"Nc1cc(Cc2cnn(Cc3ccc4c(c3)CC[C@@H]4N)c2)c2nn[nH]c2n1 [Example 270, 7-[(1-{[(1S)-1-Amino-2,3-dihydro-1H-inden-5-yl]methyl}-1H-pyrazol-4-yl)methyl]-3H-[1,2,3]triazolo[4,5-b]pyridin-5-amine]",101 to 999,101 to 999
"N#Cc1ccc(Cn2cc(Cc3cc(N)nc4[nH]nnc34)cn2)cc1 [Example 271, 4-{[4-({5-Amino-3H-[1,2,3]triazolo[4,5-b]pyridin-7-yl}methyl)-1H-pyrazol-1-yl]methyl}benzonitrile]",1 to 100,101 to 999
